Assay results taken from patent publication US4308380A, “2-Lower alkyl-2 or 3-cephem-4-carboxylic acid derivatives” (Fujisawa Pharmaceutical Co., Ltd., priority 1973, dated 1981).
Converted amounts (≈) assume the structure as drawn. Counter-ions that a name gives are not always drawn. Like-named read-outs stand apart in the source and are kept apart here.

Key:
Assay type in all cases: cell-based
[1] = system: Staphylococcus aureus 277; test: in vitro antimicrobial activity, two-fold agar plate dilution method, S. aureus 277; conditions: Table 1, S. aureus 277, 37° C., 20 hours, read-out: minimum inhibitory concentration (MIC)
Experimental: (§1) The in vitro tests of antimicrobial activity of the compared compounds were determined by the two-fold agar plate dilution method described as follows: […]

[2] = system: Staphylococcus aureus 206; test: in vitro antimicrobial activity, two-fold agar plate dilution method, S. aureus 206; conditions: Table 1, S. aureus 206, 37° C., 20 hours, read-out: minimum inhibitory concentration (MIC)
Experimental: as §1

[3] = system: Staphylococcus aureus 226; test: in vitro antimicrobial activity, two-fold agar plate dilution method, S. aureus 226; conditions: Table 1, S. aureus 226, 37° C., 20 hours, read-out: minimum inhibitory concentration (MIC)
Experimental: as §1

[4] = system: Staphylococcus aureus 278; test: in vitro antimicrobial activity, two-fold agar plate dilution method, S. aureus 278; conditions: Table 1, S. aureus 278, 37° C., 20 hours, read-out: minimum inhibitory concentration (MIC)
Experimental: as §1

[5] = system: Bacillus subtilis ATCC-6633; test: in vitro antimicrobial activity, two-fold agar-plate dilution method, B. subtilis ATCC-6633
Experimental: (§2) In vitro antimicrobial activity was determined by the two-fold agar-plate dilution method as described below.
(§3) One loopful of an overnight culture of each test strain in Trypticase-soy broth (10^8 viable cells per ml) was streaked on heart infusion agar (HI-agar) containing graded concentration of antibiotics, and the minimum inhibitory concentration (MIC) was expressed in terms of meg/ml after incubation at 37° C. for 20 hours.
(§4) The data in Table 1 below present a comparison between the 2-(C1 -C6 alkyl)-cephem compounds of the present invention and known cephem compounds structurally analogous to the present compounds, differing only by alkyl substitution in the 3-position. The in vitro tests of antimicrobial activity of the compared compounds were determined by the two-fold agar plate dilution method described as follows:
as §3, with “(HI sugar)” for “(HI-agar)”, “mcg/ml” for “meg/ml”

[6] = system: Staphylococcus aureus 213; test: in vitro antimicrobial activity, two-fold agar plate dilution method, S. aureus 213; conditions: Table 1, S. aureus 213, 37° C., 20 hours, read-out: minimum inhibitory concentration (MIC)
Experimental: as §1

[7] = system: Staphylococcus aureus 209 P JC-1; test: in vitro antimicrobial activity, two-fold agar-plate dilution method, S. aureus 209 P JC-1
Experimental: as §2, §3, §4
as §3, with “(HI sugar)” for “(HI-agar)”, “mcg/ml” for “meg/ml”

[8] = ATCC6633, B. subtilis ATCC-6633, 37° C., 20 hours, HI-agar, read-out: MIC
[9] = ATCC6633, Table 1, B. subtilis ATCC-6633, 37° C., 20 hours, read-out: minimum inhibitory concentration (MIC)
[10] = 209PJC1, Table 1, S. aureus 209 P JC-1, 37° C., 20 hours, read-out: minimum inhibitory concentration (MIC)
[11] = S. aureus 209-P JC-1, 37° C., 20 hours, HI-agar, read-out: MIC

| SMILES | MIC [1] [µg/mL] | MIC [2] [µg/mL] | MIC [3] [µg/mL] | MIC [4] [µg/mL] | MIC [5, 8] [µg/mL] | MIC [5, 9] [µg/mL] | MIC [6] [µg/mL] | MIC [7, 10] [µg/mL] | MIC [7, 11] [µg/mL] | MIC ([5]; ATCC6633, 20 h, read-out: minimum inhibitory concentration (MIC)) [µg/mL] | MIC ([7]; 209PJC1, 20 h, read-out: minimum inhibitory concentration (MIC)) [µg/mL] |
| --- | --- | --- | --- | --- | --- | --- | --- | --- | --- | --- | --- |
| CC1C=C(C(=O)O)N2C(=O)C(NC(=O)Cc3cccnc3)[C@H]2S1 (stereo partly shown) [Applicants' compound (15), 2-Methyl-7-[2-(3-pyridyl)acetamido]-3-cephem-4-carboxylic acid] | 25 (≈ 75 µM) | 6.25 (≈ 18.7 µM) | 6.25 (≈ 18.7 µM) | 6.25 (≈ 18.7 µM) | 0.78 (≈ 2.34 µM) | 0.78 (≈ 2.34 µM) | 6.25 (≈ 18.7 µM) | 3.13 (≈ 9.39 µM) | 3.13 (≈ 9.39 µM) |  |  |
| CC1=C(C(=O)O)N2C(=O)C(NC(=O)C(O)c3cccs3)C2SC1 (stereo not shown) [cited compound (2), 3-Methyl-7-[2-hydroxy-2-(2-thienyl)acetamido]-3-cephem-4-carboxylic acid (sodium salt), reference compound] | 12.5 | 6.25 | 12.5 | 12.5 |  | 1.56 | 25 | 6.25 |  |  |  |
| CC1C=C(C(=O)O)N2C(=O)C(NC(=O)Cc3ccccc3)[C@H]2S1 (stereo partly shown) [Applicants' compound (8), 2-Methyl-7-(2-phenylacetamido)-3-cephem-4-carboxylic acid] | 3.13 (≈ 9.42 µM) | 1.56 (≈ 4.69 µM) | 1.56 (≈ 4.69 µM) | 1.56 (≈ 4.69 µM) | 0.2 (≈ 0.602 µM) | 0.2 (≈ 0.602 µM) | 1.56 (≈ 4.69 µM) | 0.78 (≈ 2.35 µM) | 0.78 (≈ 2.35 µM) |  |  |
| CC1C=C(C(=O)O)N2C(=O)C(NC(=O)CC#N)[C@H]2S1 (stereo partly shown) [Applicants' compound (13), 2-Methyl-7-(2-cyanoacetamido)-3-cephem-4-carboxylic acid] | 3.13 (≈ 11.1 µM) | 6.25 (≈ 22.2 µM) | 6.25 (≈ 22.2 µM) | 6.25 (≈ 22.2 µM) | 3.13 (≈ 11.1 µM) | 3.13 (≈ 11.1 µM) | 12.5 (≈ 44.4 µM) | 3.13 (≈ 11.1 µM) | 3.13 (≈ 11.1 µM) |  |  |
| CC1C=C(C(=O)O)N2C(=O)C(NC(=O)C(NC(=O)CSc3nncs3)c3ccccc3)[C@H]2S1 (stereo partly shown) [Applicants' compound (1), 2-Methyl-7-[N-[2-(1,3,4-thiadiazol-2-ylthio)acetyl]phenylglycyl]amino-3-cephem-4-carboxylic acid] | 12.5 (≈ 24.7 µM) | 3.13 (≈ 6.19 µM) | 1.56 (≈ 3.09 µM) | 3.13 (≈ 6.19 µM) | 3.13 (≈ 6.19 µM) | 3.13 (≈ 6.19 µM) | 3.13 (≈ 6.19 µM) | 1.56 (≈ 3.09 µM) | 1.56 (≈ 3.09 µM) |  |  |
| CC1=C(C(=O)O)N2C(=O)C(NC(=O)Cc3cccnc3)[C@H]2SC1 (stereo partly shown) [cited compound (15), 3-Methyl-7-[2-(3-pyridyl)acetamido]-3-cephem-4-carboxylic acid, reference compound] | 6.25 (≈ 18.7 µM) | 12.5 (≈ 37.5 µM) | 12.5 (≈ 37.5 µM) | 12.5 (≈ 37.5 µM) |  | 1.56 (≈ 4.68 µM) | 25 (≈ 75 µM) | 6.25 (≈ 18.7 µM) |  |  |  |
| CC1=C(C(=O)O)N2C(=O)C(NC(=O)Cc3cnsn3)[C@H]2SC1 (stereo partly shown) [cited compound (12), 3-Methyl-7-[2-(1,2,5-thiadiazol-3-yl)acetamido]-3-cephem-4-carboxylic acid, reference compound] | 25 (≈ 73.4 µM) | 12.5 (≈ 36.7 µM) | 25 (≈ 73.4 µM) | 25 (≈ 73.4 µM) |  | 3.13 (≈ 9.2 µM) | 25 (≈ 73.4 µM) | 12.5 (≈ 36.7 µM) |  |  |  |
| C=CCSCC(=O)NC1C(=O)N2C(C(=O)O)=CC(C)S[C@H]12 (stereo partly shown) [Applicants' compound (14), 2-Methyl-7-[2-(allylthio)acetamido]-3-cephem-4-carboxylic acid] | 1.56 (≈ 4.75 µM) | 3.13 (≈ 9.53 µM) | 3.13 (≈ 9.53 µM) | 3.13 (≈ 9.53 µM) | 1.56 (≈ 4.75 µM) | 1.56 (≈ 4.75 µM) | 6.25 (≈ 19 µM) | 1.56 (≈ 4.75 µM) | 1.56 (≈ 4.75 µM) |  |  |
| CC1C=C(C(=O)O)N2C(=O)C(NC(=O)Cc3csc(N)n3)[C@H]2S1 (stereo partly shown) [Applicants' compound (17), 2-Methyl-7-[2-(2-aminothiazol-4-yl)acetamido]-3-cephem-4-carboxylic acid] | 1.56 (≈ 4.4 µM) | 3.13 (≈ 8.83 µM) | 1.56 (≈ 4.4 µM) | 1.56 (≈ 4.4 µM) |  | 3.13 (≈ 8.83 µM) | 1.56 (≈ 4.4 µM) | 1.56 (≈ 4.4 µM) |  |  |  |
| CC1C=C(C(=O)O)N2C(=O)C(NC(=O)C(OC(=O)c3ccncc3)c3ccccc3)[C@H]2S1 (stereo partly shown) [Applicants' compound (4), 2-Methyl-7-(2-isonicotinoyloxy-2-phenylacetamido)-3-cephem-4-carboxylicacid] | 6.25 (≈ 13.8 µM) | 0.78 (≈ 1.72 µM) | 0.78 (≈ 1.72 µM) | 1.56 (≈ 3.44 µM) | 0.78 (≈ 1.72 µM) | 0.78 (≈ 1.72 µM) | 1.56 (≈ 3.44 µM) | 0.39 (≈ 0.86 µM) | 0.39 (≈ 0.86 µM) |  |  |
| CSc1ccc(C(N)C(=O)NC2C(=O)N3C(C(=O)O)=CC(C)S[C@H]23)cc1 (stereo partly shown) [Applicants' compound (16), 2-Methyl-7-[2-amino-2-(4-methylthiophenyl)acetamido]-3-cephem-4-carboxylicacid] | 25 (≈ 63.5 µM) | 6.25 (≈ 15.9 µM) | 6.25 (≈ 15.9 µM) | 12.5 (≈ 31.8 µM) | 6.25 (≈ 15.9 µM) | 6.25 (≈ 15.9 µM) | 25 (≈ 63.5 µM) | 3.13 (≈ 7.95 µM) | 3.13 (≈ 7.95 µM) |  |  |
| CC1=C(C(=O)O)N2C(=O)C(NC(=O)Cc3ccccc3)[C@H]2SC1 (stereo partly shown) [cited compound (8), 3-Methyl-7-(2-phenylacetamido)-3-cephem-4-carboxylic acid, reference compound] | 1.56 (≈ 4.69 µM) | 6.25 (≈ 18.8 µM) | 3.13 (≈ 9.42 µM) | 3.13 (≈ 9.42 µM) |  |  | 6.25 (≈ 18.8 µM) |  |  | 0.78 (≈ 2.35 µM) | 1.56 (≈ 4.69 µM) |
| CC1=C(C(=O)O)N2C(=O)C(NC(=O)CSc3nncs3)[C@H]2SC1 (stereo partly shown) [cited compound (11), 3-Methyl-7-[2-(1,3,4-thiadiazol-2-ylthio)acetamido]-3-cephem-4-carboxylic acid, reference compound] | 6.25 (≈ 16.8 µM) | 3.13 (≈ 8.4 µM) | 6.25 (≈ 16.8 µM) | 3.13 (≈ 8.4 µM) |  | 1.56 (≈ 4.19 µM) | 6.25 (≈ 16.8 µM) | 3.13 (≈ 8.4 µM) |  |  |  |
| CC1C=C(C(=O)O)N2C(=O)C(NC(=O)Cc3cnsn3)[C@H]2S1 (stereo partly shown) [Applicants' compound (12), 2-Methyl-7-[2-(1,2,5-thiadiazol-3-yl)acetamido]-3-cephem-4-carboxylic acid] | 6.25 (≈ 18.4 µM) | 3.13 (≈ 9.2 µM) | 3.13 (≈ 9.2 µM) | 6.25 (≈ 18.4 µM) | 1.56 (≈ 4.58 µM) | 1.56 (≈ 4.58 µM) | 6.25 (≈ 18.4 µM) | 3.13 (≈ 9.2 µM) | 3.13 (≈ 9.2 µM) |  |  |
| CC1C=C(C(=O)O)N2C(=O)C(NC(=O)Cc3cccs3)[C@H]2S1 (stereo partly shown) [Applicants' compound (5), 2-Methyl-7-[2-(2-thienyl)acetamido]-3-cephem-4-carboxylic acid] | 1.56 (≈ 4.61 µM) | 1.56 (≈ 4.61 µM) | 1.56 (≈ 4.61 µM) | 1.56 (≈ 4.61 µM) | 0.39 (≈ 1.15 µM) | 0.39 (≈ 1.15 µM) | 1.56 (≈ 4.61 µM) | 0.78 (≈ 2.3 µM) | 0.78 (≈ 2.3 µM) |  |  |
| CC1C=C(C(=O)O)N2C(=O)C(NC(=O)C(O)c3cccs3)[C@H]2S1 (stereo partly shown) [Applicants' compound (2), 2-Methyl-7-[2-hydroxy-2-(2-thienyl)acetamido]-3-cephem-4-carboxylic acid] | 3.13 (≈ 8.83 µM) | 0.78 (≈ 2.2 µM) | 3.13 (≈ 8.83 µM) | 3.13 (≈ 8.83 µM) | 0.78 (≈ 2.2 µM) | 0.78 (≈ 2.2 µM) | 3.13 (≈ 8.83 µM) | 0.78 (≈ 2.2 µM) | 0.78 (≈ 2.2 µM) |  |  |
| CC1=C(C(=O)O)N2C(=O)C(NC(=O)CC#N)[C@H]2SC1 (stereo partly shown) [cited compound (13), 3-Methyl-7-(2-cyanoacetamido)-3-cephem-4-carboxylic acid, reference compound] | 12.5 (≈ 44.4 µM) | 6.25 (≈ 22.2 µM) | 12.5 (≈ 44.4 µM) | 12.5 (≈ 44.4 µM) |  | 3.13 (≈ 11.1 µM) | 12.5 (≈ 44.4 µM) | 6.25 (≈ 22.2 µM) |  |  |  |
| CC1C=C(C(=O)O)N2C(=O)C(NC(=O)C(N=[N+]=[N-])c3ccccc3)[C@H]2S1 (stereo partly shown) [Applicants' compound (10), 2-Methyl-7-(2-azido-2-phenylacetamido)-3-cephem-4-carboxylic acid] | 12.5 (≈ 33.5 µM) | 1.56 (≈ 4.18 µM) | 1.56 (≈ 4.18 µM) | 1.56 (≈ 4.18 µM) | 0.39 (≈ 1.04 µM) | 0.39 (≈ 1.04 µM) | 1.56 (≈ 4.18 µM) | 1.56 (≈ 4.18 µM) | 1.56 (≈ 4.18 µM) |  |  |
| CC1C=C(C(=O)O)N2C(=O)C(NC(=O)C(C(=O)Oc3ccc4c(c3)CCC4)c3ccccc3)[C@H]2S1 (stereo partly shown) [Applicants' compound (3), 2-Methyl-7-[2-(5-indanyloxy)carbonyl-2-phenylacetamido]-3-cephem-4-carboxylic acid] | 0.78 (≈ 1.58 µM) | 0.39 (≈ 0.792 µM) | 0.2 (≈ 0.406 µM) | 0.39 (≈ 0.792 µM) | 6.25 (≈ 12.7 µM) | 6.25 (≈ 12.7 µM) | 0.39 (≈ 0.792 µM) | 1.56 (≈ 3.17 µM) | 1.56 (≈ 3.17 µM) |  |  |
